Test results taken from the supplement of paper PMC11579375.

Experiments:
Assay in all cases: area under the viability dose-response curve (AUC) (AUC (arbitrary units, max 500 = no viability loss)); higher = less sensitive (higher viability)
Conditions in all cases: exposure time: 120 h; concentration range: 0.1 nM - 10 µM, 6 doses
13E = tested on: 13E (embryonal-type hepatoblastoma organoid)
Method: (§1)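 Patient-derived hepatoblastoma tumor organoids (about 50 organoids per well, 384-well plates, medium with 5% BME) were treated with the PMC pediatric cancer drug library. Each drug was tested in duplicate at 6 concentrations (0.1 nM to 10 µM, 10-fold steps).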

17F1 = tested on: 17F1 (fetal-I hepatoblastoma organoid with intermediate liver markers)
Method: as §1

13F2 = tested on: 13F2 (fetal-II hepatoblastoma organoid with high liver markers)
Method: as §1

17E = tested on: 17E (embryonal-type hepatoblastoma organoid)
Method: as §1

10F2 = tested on: 10F2 (fetal-II hepatoblastoma organoid with high liver markers)
Method: as §1

135F2 = tested on: 135F2 (fetal-II hepatoblastoma organoid with high liver markers)
Method: as §1

8F1 = tested on: 8F1 (fetal-I hepatoblastoma organoid with intermediate liver markers)
Method: as §1

22E = tested on: 22E (embryonal-type hepatoblastoma organoid)
Method: as §1

27F1 = tested on: 27F1 (fetal-I hepatoblastoma organoid with intermediate liver markers)
Method: as §1

3E = tested on: 3E (embryonal-type hepatoblastoma organoid)
Method: as §1

96F1 = tested on: 96F1 (fetal-I hepatoblastoma organoid with intermediate liver markers)
Method: as §1

Row | SMILES | area under the viability dose-response curve (13E) | area under the viability dose-response curve (17F1) | area under the viability dose-response curve (13F2) | area under the viability dose-response curve (17E) | area under the viability dose-response curve (10F2) | area under the viability dose-response curve (135F2) | area under the viability dose-response curve (8F1) | area under the viability dose-response curve (22E) | area under the viability dose-response curve (27F1) | area under the viability dose-response curve (3E) | area under the viability dose-response curve (96F1)
1 | O=P1(N(CCCl)CCCl)NC(OO)CCO1 (centres undefined) [4-Hydroperoxy cyclophosphamide (Cyclophosphamide)] | > 500 | > 500 | > 500 | > 500 | 465 |  |  |  |  |  | 
2 | CC(C)(CN1C(=O)C(Cl)=C(Cl)C1=O)CN1C(=O)C(Cl)=C(Cl)C1=O |  |  |  |  |  | 497 | > 500 | 427 | > 500 | > 500 | > 500
3 | COc1cc2/c(=N/c3ccc(Br)cc3F)nc[nH]c2cc1OCC1CCN(C)CC1 [Vandetanib] | 459 | 449 | 373 | 429 | 340 | 428 | 487 |  | 446 | 474 | 410
4 | CCN(CC)CCNC(=O)c1c(C)[nH]c(/C=C2\C(=O)Nc3ccc(F)cc32)c1C [Sunitinib] | 463 | > 500 | 419 | 424 | 385 | 437 | 461 |  | 498 | 471 | 464
5 | Cc1cnc(CNC(=O)c2c(=O)c3ccc(N4CCCN(C)CC4)nc3n3c2sc2ccccc23)cn1 [Pidnarulex] |  |  |  |  |  | 402 | 472 | 436 | 489 | 396 | 453
6 | O=C(/C=C\n1cnc(-c2cc(C(F)(F)F)cc(C(F)(F)F)c2)n1)NNc1cnccn1 [Selinexor] | 345 | 443 | 319 | 387 | 360 | 378 | 489 |  | 415 | 349 | 395
7 | CN(C)C(=O)c1cc2cnc(Nc3ccc(N4CCNCC4)cn3)nc2n1C1CCCC1 [Ribociclib] | 446 | 473 | 422 | 406 | 442 | 461 | 470 |  | 442 | 404 | 472
8 | O=C(Nc1ccc(Cl)c(C(F)(F)F)c1)NC1CCC(Oc2ccc(C(F)(F)F)cn2)CC1 (centres undefined) [UC2288] |  |  |  |  |  | 468 | 486 | 477 | 490 | 371 | 484
9 | O=C(O)C1(C(=O)O)CCC1.[NH2-].[NH2-].[Pt+2] [Carboplatin] |  | 494 | 462 | 491 | 470 | 494 | 433 | > 500 | 487 | 478 | 476
10 | COc1c(OCCCN2CCOCC2)ccc2c1N=C(NC(=O)c1cnc(N)nc1)N1CCN=C21 [Copanlisib] |  |  |  |  |  | 315 | 390 | 300 | 485 | > 500 | 352
11 | CO[C@@H](C)Cn1c(=O)n(C)c2cnc3ccc(-c4cncc(C(C)(C)O)c4)cc3c21 [Samotolisib] | 364 | 446 | 334 | 357 | 372 | 361 | 442 |  | 424 | 306 | 406
12 | O=NN(CCCl)C(=O)NC1CCCCC1 [Lomustine] |  |  |  |  |  | 487 | > 500 | 455 | > 500 | 446 | 470
13 | C[C@@H]1C[C@H](C)CN(S(=O)(=O)c2ccc3c(c2)C(=NO)c2cc(S(=O)(=O)N4C[C@H](C)C[C@H](C)C4)ccc2C3=NO)C1 [Tegavivint] |  |  |  |  |  |  | 338 |  |  | 236 | 
14 | Nc1cc(F)ccc1NC(=O)c1ccc(CNC(=O)/C=C/c2cccnc2)cc1 [Tucidinostat] |  |  |  |  |  | 443 | 472 |  | 458 | 432 | 474
15 | NC(=O)c1cccc2cn(-c3ccc([C@@H]4CCCNC4)cc3)nc12 [Niraparib] | 472 | 490 | 455 | 495 | 459 | 458 | > 500 |  | 478 | 461 | 492
16 | COCc1c(-c2cc3cc(C)cc(OC)c3s2)c2c(N)ncnn2c1CN1CCNC(=O)C1 [Rogaratinib] |  |  |  |  |  | 473 | 496 | 440 | 475 | 361 | 485
17 | O=c1[nH]c(=O)n([C@@H]2O[C@H](CO)[C@@H](O)[C@H]2O)cc1F [5-Fluorouridine] |  |  |  |  |  | 303 | 447 | 420 | 364 | 319 | 333
18 | COc1cc2c(cc1O)CCN[C@]21CS[C@@H]2c3c(OC(C)=O)c(C)c4c(c3[C@H](COC1=O)N1[C@@H]2[C@H]2c3c(cc(C)c(OC)c3O)C[C@@H]([C@@H]1O)N2C)OCO4 [Trabectedin] |  |  |  |  |  | 57.9 | 144 | 133 | 117 | 24.1 | 84.9
19 | N[C@@H]1CCCN(c2c(/C=C3\SC(=O)NC3=O)cccc2-c2ccccc2)C1 [AZD1208] |  |  |  |  |  | 487 | > 500 |  | 471 | 430 | > 500

Row | SMILES | area under the viability dose-response curve (13E) | area under the viability dose-response curve (17F1) | area under the viability dose-response curve (13F2) | area under the viability dose-response curve (17E) | area under the viability dose-response curve (10F2) | area under the viability dose-response curve (135F2) | area under the viability dose-response curve (8F1) | area under the viability dose-response curve (22E) | area under the viability dose-response curve (27F1) | area under the viability dose-response curve (3E) | area under the viability dose-response curve (96F1)
20 | CC[C@H](C)n1cc(C)c2c(C(=O)NCc3c(C)cc(C)[nH]c3=O)cc(-c3ccc(N4CCNCC4)nc3)cc21 [GSK-126] |  |  |  |  |  | > 500 | > 500 | > 500 | 499 | 458 | > 500
21 | O=P(O)(NCCCl)NCCCl [Palifosfamide (Ifosfamide)] | 493 | 477 | 498 | 473 | 474 |  |  |  |  |  | 
22 | CC1(N)CCN(c2cnc(-c3cccc(Cl)c3Cl)c(N)n2)CC1 [SHP099] | 500 | 483 | 479 | > 500 | 430 |  | > 500 |  | 464 | 473 | 
23 | N#Cc1c(Oc2ccc(F)c(NC(=O)Cc3cccc(C(F)(F)F)c3)c2)ccc2nc(NC(=O)C3CC3)sc12 [TAK632] |  |  |  |  |  | 393 | 478 | 455 | 467 | 472 | 417
24 | NC(=O)/C(=C/n1cnc(-c2cc(C(F)(F)F)cc(C(F)(F)F)c2)n1)c1cncnc1 [Eltanexor] |  |  |  |  |  | 371 | 469 |  | 429 | 345 | 406
25 | CC(C)(O)c1cc(Nc2cc(Oc3cn(C4CC4)nc3C3CCOCC3)ccn2)ccn1 |  |  |  |  |  | > 500 | 499 |  | > 500 | > 500 | > 500
26 | O=C(O)C(=O)O.[NH-][C@@H]1CCCC[C@H]1[NH-].[Pt+2] [Oxaliplatin] |  | > 500 | 488 | > 500 | 457 |  | 486 | > 500 | 481 | 490 | 
27 | N#CC1(c2ccc(NC(=O)c3cccnc3NCc3ccncc3)cc2)CCCC1 [Apatinib] | 497 |  | 484 | 476 | 490 | 470 | 498 | 438 | > 500 | 491 | 481
28 | Cc1sc2c(c1C)C(c1ccc(Cl)cc1)=N[C@@H](CC(=O)NCCCN1CCN(C)CC1)c1nnc(C)n1-2 [(S)-JQ-35] |  |  |  |  |  | 388 | 345 | 410 | 447 | 309 | 496
29 | Cn1cc(-c2cc3c(N4CCN(c5ncc([C@@](C)(N)c6ccc(F)cc6)cn5)CC4)ncnn3c2)cn1 [Avapritinib] |  |  |  |  |  | 437 | 478 | 433 | 473 | 455 | 452
30 | COc1cc2nc(C)nc(N[C@H](C)c3cc(N)cc(C(F)(F)F)c3)c2cc1O[C@H]1CCOC1 [BI-3406] |  |  |  |  |  | 472 | > 500 |  | 481 | > 500 | 413
31 | CNCc1ccccc1-c1csc([C@@H](C)Nc2nc(C)nc3cc(OC)c(OC)cc23)c1 [BAY-293] |  |  |  |  |  | 446 | > 500 |  | 488 | 458 | 461
32 | CC(=O)[C@]1(O)Cc2c(O)c3c(c(O)c2[C@@H](O[C@H]2C[C@H](N)[C@H](O)[C@H](C)O2)C1)C(=O)c1ccccc1C3=O [Idarubicin] |  |  |  |  |  | 143 | 373 | 313 | 273 | 234 | 215
33 | Cn1cc(-n2cnc3c(NCc4nc5cc(Cl)c(Cl)cc5[nH]4)nc(N4CCOCC4)nc32)cn1 [SR-4835] |  |  |  |  |  | 277 | 292 | 327 | 264 | 196 | 279
34 | CC(C)n1c(=O)n(C)c2cnc3cc(F)c(-c4ccc(OCCCN5CCCCC5)nc4)cc3c21 [AZD1390] |  |  |  |  |  | 440 | 486 | > 500 | > 500 | 491 | 471
35 | O=C(NC[C@H](O)CO)c1ccncc1Nc1ccc(I)cc1F [Pimasertib] |  |  |  |  |  | 393 | > 500 | 445 | 457 | 456 | 467
36 | CN(C)CCNC(=O)c1cccn2c(=O)c3cc4ccccc4cc3nc12 [BMH-21] |  |  |  |  |  | 416 | 408 | 466 | 434 | 430 | 445
37 | Cn1nccc1Nc1nccc(-c2cc3c(s2)C(C)(C)N(CCN2CCOCC2)C3=O)n1 [Temuterkib] |  |  |  |  |  | 409 | > 500 | > 500 | 440 | 443 | 484
38 | Cc1c(Cl)ccc2c1N=C/C2=C\c1[nH]c(=O)n(C(C(=O)NC(CO)CO)c2ccc(F)c(F)c2)c1O (centres undefined) [RO-5963] |  |  |  |  |  | 459 |  | 449 |  |  | 446
